Measurements taken from ChEMBL document CHEMBL1201862, “PubChem BioAssay data set” (2004).
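Where inhibition never reached the appropriate level, the endpoint shown equals the highest concentration tested. Otherwise, values were interpolated linearly from a five-concentration, 48-hour dose response in 96-well plates. The concentration for 50% growth inhibition is given as GI50.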 The source made the active and inactive calls. No stated cut-off is given here; in the data, active = GI50 up to about 1.1 µM and inactive = higher.

Columns and labels:
Experiment in all cases: NCI anticancer screen, dose series, 48 h
[1] = test system: A498
[2] = test system: ACHN
[3] = test system: CCRF-CEM
[4] = test system: EKVX
[5] = test system: HCT-116
[6] = test system: HL-60
[7] = test system: Hs-578T
[8] = test system: K562
[9] = test system: LOX IMVI
[10] = test system: MCF7
[11] = test system: Malme-3M
[12] = test system: NCI-H460
[13] = test system: OVCAR-8
[14] = test system: PC-3
[15] = test system: SF-268
[16] = test system: SK-MEL-28
[17] = test system: SK-OV-3
[18] = test system: SN12C
[19] = test system: U-251
[20] = test system: SF-539

Structure (SMILES)	GI50 [1]	GI50 [2]	GI50 [3]	GI50 [4]	GI50 [5]	GI50 [6]	GI50 [7]	GI50 [8]	GI50 [9]	GI50 [10]	GI50 [11]	GI50 [12]	GI50 [13]	GI50 [14]	GI50 [15]	GI50 [16]	GI50 [17]	GI50 [18]	GI50 [19]	GI50 [20]
COc1ccc2c(=O)cc(-c3ccncc3)oc2c1OC	14.7 µM (inactive)	25.7 µM (inactive)	29.1 µM (inactive)	28.2 µM (inactive)	24.2 µM (inactive)	19.5 µM (inactive)	15.7 µM (inactive)	38.3 µM (inactive)	21 µM (inactive)	35.7 µM (inactive)	30.4 µM (inactive)	20.7 µM (inactive)	24.9 µM (inactive)	23.8 µM (inactive)	21.8 µM (inactive)	26.5 µM (inactive)	41 µM (inactive)	29.6 µM (inactive)	30.1 µM (inactive)	
COc1cc(C=C2C(C)=NN(c3cccc(Cl)c3)C23C(Cl)C(=O)N3c2nc3ccccc3s2)ccc1O (configuration not stated)	17.9 µM (inactive)	19.2 µM (inactive)	2.07 µM (inactive)	31.4 µM (inactive)	19.9 µM (inactive)	0.546 µM (active)	7.36 µM (inactive)	3.61 µM (inactive)	18.1 µM (inactive)	28.2 µM (inactive)		25.4 µM (inactive)	16.8 µM (inactive)	14.9 µM (inactive)	3.09 µM (inactive)	23.3 µM (inactive)	26.3 µM (inactive)		15 µM (inactive)	35.4 µM (inactive)
Cc1c(/N=N/c2ccc(Cl)cc2)c(C)n(C2OC(CO)C(O)C(O)C2O)c(=S)c1C#N (configuration not stated)		19.6 µM (inactive)	18.5 µM (inactive)	21.8 µM (inactive)	15.1 µM (inactive)	22.1 µM (inactive)	10.7 µM (inactive)	16.7 µM (inactive)	17.3 µM (inactive)	28.6 µM (inactive)	22.5 µM (inactive)	25.8 µM (inactive)	30.1 µM (inactive)	23.4 µM (inactive)	16 µM (inactive)	23.4 µM (inactive)	37.4 µM (inactive)	15.5 µM (inactive)	18.2 µM (inactive)	20.4 µM (inactive)
COc1cc(C[C@H]2C(=O)OC[C@@H]2Cc2ccc(OC)c(OC)c2)cc(OC)c1		31.2 µM (inactive)	25.8 µM (inactive)	55.6 µM (inactive)	34.7 µM (inactive)	37.2 µM (inactive)	> 100 µM (inactive)	31.5 µM (inactive)	18.5 µM (inactive)	34.2 µM (inactive)	55.6 µM (inactive)	> 100 µM (inactive)	98.4 µM (inactive)	33 µM (inactive)	> 100 µM (inactive)	62.2 µM (inactive)	> 100 µM (inactive)	> 100 µM (inactive)	70.8 µM (inactive)	> 100 µM (inactive)
Cc1ccc(/C=N/Nc2nc3ccccc3s2)s1		> 100 µM (inactive)	> 100 µM (inactive)	50.7 µM (inactive)	> 100 µM (inactive)	> 100 µM (inactive)	66.1 µM (inactive)	31.5 µM (inactive)	> 100 µM (inactive)	5.53 µM (inactive)	> 100 µM (inactive)		> 100 µM (inactive)	27.9 µM (inactive)	49.8 µM (inactive)	> 100 µM (inactive)	58.7 µM (inactive)	12.6 µM (inactive)	81.1 µM (inactive)	91.8 µM (inactive)
CC1(C)CC(C#Cc2ccccc2)CC(C)(C)N1O		25.8 µM (inactive)	39.8 µM (inactive)	23.6 µM (inactive)	20 µM (inactive)	14.8 µM (inactive)	19 µM (inactive)	22.8 µM (inactive)	15.5 µM (inactive)	16.5 µM (inactive)	16.8 µM (inactive)	18.3 µM (inactive)	20.7 µM (inactive)	11.6 µM (inactive)	20.7 µM (inactive)	16.6 µM (inactive)	27.1 µM (inactive)	15.1 µM (inactive)	23.9 µM (inactive)	20.6 µM (inactive)
COP(=O)(CC(=O)C1OC(OCc2ccccc2)C(OCc2ccccc2)C(OCc2ccccc2)C1OCc1ccccc1)OC (configuration not stated)		5.71 µM (inactive)	4.76 µM (inactive)	8.07 µM (inactive)	5.11 µM (inactive)	4.39 µM (inactive)	23.9 µM (inactive)	4.31 µM (inactive)	11 µM (inactive)	4.74 µM (inactive)	9.1 µM (inactive)	4.24 µM (inactive)	5.87 µM (inactive)	5.01 µM (inactive)	12.8 µM (inactive)	54 µM (inactive)	27.8 µM (inactive)	3 µM (inactive)	6.37 µM (inactive)	12.8 µM (inactive)
Cc1cc2[n-][n+]3ncc(-c4ccccc4)n3c2cc1[N+](=O)[O-]	> 100 µM (inactive)	> 100 µM (inactive)	> 100 µM (inactive)	> 100 µM (inactive)	> 100 µM (inactive)	> 100 µM (inactive)	> 100 µM (inactive)	> 100 µM (inactive)	> 100 µM (inactive)	> 100 µM (inactive)		> 100 µM (inactive)		> 100 µM (inactive)		> 100 µM (inactive)	> 100 µM (inactive)	> 10 µM (inactive)	> 100 µM (inactive)	> 100 µM (inactive)
CC(=O)OCC1OC(Nc2ccc3nc(C)n(-c4ccccc4)c(=O)c3c2)C(OC(C)=O)C(OC(C)=O)C1OC(C)=O (configuration not stated)	> 50 µM (inactive)	> 50 µM (inactive)		> 50 µM (inactive)	> 50 µM (inactive)	23.7 µM (inactive)	> 50 µM (inactive)	32.1 µM (inactive)	42.8 µM (inactive)	> 50 µM (inactive)	> 50 µM (inactive)	15.5 µM (inactive)	> 50 µM (inactive)	> 50 µM (inactive)	> 50 µM (inactive)	> 50 µM (inactive)		> 50 µM (inactive)	> 50 µM (inactive)	
O=C1NC(N2CCCC(CO)C2)=N/C1=C\c1ccc(O)cc1 (configuration not stated)		> 100 µM (inactive)	> 100 µM (inactive)	> 100 µM (inactive)	> 100 µM (inactive)	> 100 µM (inactive)	> 100 µM (inactive)	> 100 µM (inactive)	> 100 µM (inactive)	> 100 µM (inactive)	> 100 µM (inactive)		> 100 µM (inactive)	> 100 µM (inactive)	> 100 µM (inactive)	> 100 µM (inactive)	> 100 µM (inactive)	> 100 µM (inactive)	> 100 µM (inactive)	> 100 µM (inactive)
CCCNC(=O)Cn1c(C)cc2ccccc21		> 100 µM (inactive)	> 100 µM (inactive)	> 100 µM (inactive)	> 100 µM (inactive)	> 100 µM (inactive)	> 100 µM (inactive)	> 100 µM (inactive)	> 100 µM (inactive)	> 100 µM (inactive)	> 100 µM (inactive)	> 10 µM (inactive)	> 100 µM (inactive)	> 100 µM (inactive)	> 100 µM (inactive)	> 100 µM (inactive)	> 100 µM (inactive)	> 100 µM (inactive)	> 100 µM (inactive)	> 100 µM (inactive)
N#Cc1c(N)c(-c2ccc(Cl)cc2)c(F)c2ccccc12	> 100 µM (inactive)	> 100 µM (inactive)		7 µM (inactive)	> 100 µM (inactive)		7.35 µM (inactive)	> 100 µM (inactive)	94.2 µM (inactive)	6.49 µM (inactive)	> 100 µM (inactive)	> 100 µM (inactive)	> 100 µM (inactive)	> 100 µM (inactive)	9.82 µM (inactive)	> 100 µM (inactive)	> 100 µM (inactive)	> 100 µM (inactive)	96.4 µM (inactive)	> 100 µM (inactive)
O=C(CCCCCCCCC(=O)N1C(=O)CC(=O)N(c2ccc(Cl)cc2)C1=S)N1C(=O)CC(=O)N(c2ccc(Cl)cc2)C1=S	> 100 µM (inactive)	35.4 µM (inactive)	30.9 µM (inactive)	47.4 µM (inactive)	48.5 µM (inactive)		> 100 µM (inactive)	17.5 µM (inactive)	54.8 µM (inactive)	37.8 µM (inactive)	> 100 µM (inactive)	29.6 µM (inactive)	63.5 µM (inactive)	57.1 µM (inactive)	> 100 µM (inactive)	70.3 µM (inactive)	73.3 µM (inactive)	> 100 µM (inactive)	> 100 µM (inactive)	> 100 µM (inactive)
OC1CN=C2c3ccccc3C(O)(c3ccc(Cl)cc3)N2C1 (configuration not stated)		> 100 µM (inactive)	36.7 µM (inactive)	> 100 µM (inactive)	35.6 µM (inactive)	44.4 µM (inactive)	88.5 µM (inactive)	35.6 µM (inactive)	45.4 µM (inactive)	48.2 µM (inactive)	31.7 µM (inactive)	43.9 µM (inactive)	77.4 µM (inactive)	41.9 µM (inactive)	32 µM (inactive)	49.7 µM (inactive)	69.5 µM (inactive)	57.7 µM (inactive)	66.7 µM (inactive)	32.2 µM (inactive)
C=CCOn1c(C=C)nc2ccc(C)cc21	17.1 µM (inactive)	20.1 µM (inactive)	2.44 µM (inactive)	19.4 µM (inactive)	12.1 µM (inactive)	5.01 µM (inactive)	27.2 µM (inactive)	20.6 µM (inactive)	12.8 µM (inactive)	10.1 µM (inactive)	18 µM (inactive)	13.7 µM (inactive)	23.6 µM (inactive)	12.9 µM (inactive)	24 µM (inactive)	18.7 µM (inactive)	35.2 µM (inactive)	16.3 µM (inactive)	12.5 µM (inactive)	
